{
  "source": "paper PMC8168783",
  "about": "“An anion and small molecule inhibition study of the β-carbonic anhydrase from Staphylococcus aureus” (Journal of Enzyme Inhibition and Medicinal Chemistry, 2021)",
  "data": [
    {"target": "T1, SauBCA", "T1 construct": "recombinant, obtained in-house as described earlier", "assay": "stopped-flow CO2 hydration assay", "assay_type": "biochemical, Staphylococcus aureus", "details": "CO2 1.7-17 mM, 10 mM Hepes pH 7.4, 10 mM NaClO4, 15 min preincubation at room temperature; inhibitor as sodium salt", "units": {"Ki": "mM"}, "values": [
      {"molecule": "CCN(CC)C(=S)S", "note": "[N,N-diethyldithiocarbamate]", "Ki": 0.64},
      {"molecule": "O=S(O)O", "note": "[bisulphite]", "Ki": 0.9},
      {"molecule": "O=[As](O)(O)c1ccccc1", "note": "[phenylarsonic acid]", "Ki": 0.007},
      {"molecule": "N#C[SeH]", "note": "[selenocyanate]", "Ki": 5.5},
      {"molecule": "[O]=[Sn]([OH])[OH]", "note": "[stannate]", "Ki": 0.32}
    ]},
    {"target": "T1, SauBCA", "assay": "stopped-flow CO2 hydration assay", "assay_type": "biochemical, Staphylococcus aureus", "details": "CO2 1.7-17 mM, 10 mM Hepes pH 7.4, 10 mM NaClO4, 15 min preincubation at room temperature; not as sodium salt", "units": {"Ki": "mM"}, "values": [
      {"molecule": "OB(O)c1ccccc1", "note": "[phenylboronic acid]", "Ki": 0.008}
    ]}
  ]
}
